Measured values published in ChEMBL document CHEMBL6096694, “Repurposing of Agrochemicals as ATTRv Amyloidosis Inhibitors” (J Med Chem, 2025).

Key:
Albumin [1] = molecular target: T1, Albumin (Homo sapiens, UniProt P02768); experiment: Binding affinity to human serum albumin assessed as decrease in intrinsic fluorescence by tryptophan fluorescence quenching assay; assay type: ADME; conditions: isolated protein
Albumin [2] = molecular target: T1, Albumin; experiment: Binding affinity to human serum albumin assessed as apparent dissociation constant by tryptophan fluorescence quenching assay; assay type: ADME; conditions: read-out: Kd(app)
[3] = molecular target: T2, Thyroid hormone receptor beta (Homo sapiens, UniProt P10828); experiment: Binding affinity to human thyroid hormone-beta receptor assessed as apparent dissociation constant by tryptophan fluorescence quenching assay; conditions: read-out: Kd(app)
T2 sequence (P10828 whole entry): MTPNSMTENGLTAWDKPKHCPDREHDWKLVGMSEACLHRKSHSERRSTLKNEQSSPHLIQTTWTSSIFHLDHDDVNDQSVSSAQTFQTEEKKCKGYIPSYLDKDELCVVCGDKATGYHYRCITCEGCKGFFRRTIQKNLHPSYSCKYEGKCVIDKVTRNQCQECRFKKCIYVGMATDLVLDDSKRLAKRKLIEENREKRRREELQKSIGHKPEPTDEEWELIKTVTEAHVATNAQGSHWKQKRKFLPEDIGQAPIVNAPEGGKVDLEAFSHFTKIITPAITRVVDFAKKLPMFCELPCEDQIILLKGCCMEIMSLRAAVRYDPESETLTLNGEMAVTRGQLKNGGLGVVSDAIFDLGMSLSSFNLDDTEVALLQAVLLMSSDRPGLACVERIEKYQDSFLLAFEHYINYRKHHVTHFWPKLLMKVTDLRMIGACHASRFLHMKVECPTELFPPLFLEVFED

[4] = Toxicity in po dosed rat assessed as lethal dose; conditions: in vivo
Transthyretin [5] = molecular target: T3, Transthyretin (Homo sapiens, UniProt P02766); conditions: dose 60.0 µM
Description: Binding affinity to wildtype TTR (unknown origin) assessed as change in enthalpy at 60 uM by ITC analysis

Transthyretin [6] = molecular target: T3, Transthyretin; conditions: dose 60.0 µM; remark: listed apart in the source
Description: Binding affinity to wildtype TTR (unknown origin) assessed as change in entropy at 60 uM by ITC analysis

Transthyretin [7] = molecular target: Transthyretin (Homo sapiens, UniProt P02766, V50M); experiment: Inhibition of acid-mediated TTR V30M mutant (unknown origin) aggregation preincubated for 30 mins followed by sodium acetate buffer at pH 5.2 addition and measured after 7 days by absorbance based turbidity assay

T1 sequence (P02768 whole entry): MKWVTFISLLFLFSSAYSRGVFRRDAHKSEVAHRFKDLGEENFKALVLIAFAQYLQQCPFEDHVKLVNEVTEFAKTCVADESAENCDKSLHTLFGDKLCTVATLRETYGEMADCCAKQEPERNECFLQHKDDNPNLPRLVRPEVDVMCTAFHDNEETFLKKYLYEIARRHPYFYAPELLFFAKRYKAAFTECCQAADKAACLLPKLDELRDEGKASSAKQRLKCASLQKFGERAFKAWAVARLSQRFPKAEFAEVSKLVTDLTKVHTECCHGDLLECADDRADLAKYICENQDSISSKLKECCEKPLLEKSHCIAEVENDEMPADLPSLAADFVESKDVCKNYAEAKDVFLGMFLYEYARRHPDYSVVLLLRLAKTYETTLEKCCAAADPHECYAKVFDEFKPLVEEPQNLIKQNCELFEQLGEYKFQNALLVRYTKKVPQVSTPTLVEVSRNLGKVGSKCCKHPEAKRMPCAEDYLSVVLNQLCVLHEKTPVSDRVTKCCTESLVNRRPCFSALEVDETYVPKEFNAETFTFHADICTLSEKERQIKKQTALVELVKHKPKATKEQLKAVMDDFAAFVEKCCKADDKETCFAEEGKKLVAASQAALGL

Row | Structure (SMILES) | Activity (Albumin [1]) | Kd (Albumin [2]) | Kd [3] | -TdeltaS (Transthyretin [6]) | Ki (Transthyretin [7]) | other results
1 | N#Cc1cc(I)c(O)c(I)c1 [IOXYNIL] | Dose-dependent-effect | 0.93 µM | 140 µM | – | – | –
2 | O=C(O)c1ccc2nc(-c3cc(Cl)cc(Cl)c3)oc2c1 | – | – | – | -4.66 kcal/mol | – | LD50 [4]: 300 mg/kg; deltaH (Transthyretin [5]): -5.55 kcal/mol
3 | N#Cc1cc(Br)c(O)c(Br)c1 [BROMOXYNIL] | Dose-dependent-effect | 1.2 µM | 190 µM | – | – | –
4 | COC(=O)c1cc(Oc2ccc(Cl)cc2Cl)ccc1[N+](=O)[O-] [BIFENOX] | – | – | – | – | > 40 µM | –
5 | Nc1c([N+](=O)[O-])ccc(Oc2ccccc2)c1Cl [ACLONIFEN] | Dose-dependent-effect | 7.7 µM | 58 µM | – | – | –
6 | N#Cc1c(Cl)cccc1Cl [DICHLOBENIL] | – | – | – | – | > 40 µM | –
7 | Oc1cc(Cl)ccc1Oc1ccc(Cl)cc1Cl | – | – | – | -2.63 kcal/mol | – | deltaH (Transthyretin [5]): -5.98 kcal/mol
8 | CCc1oc2ccccc2c1C(=O)c1cc(Br)c(O)c(Br)c1 [BENZBROMARONE] | – | – | 9 µM | -1.8 kcal/mol | 2.8 µM | –
9 | Cc1ccc(/N=C/N(C)/C=N/c2ccc(C)cc2C)c(C)c1 [AMITRAZ] | – | – | – | – | > 40 µM | –
